Here are results for four compounds from EP4610271B1, “SELF-ASSEMBLING POLYPEPTIDE AND USE THEREOF” (Success Bio-Tech Co., Ltd., priority 2023, dated 2026).

Some results are limits rather than exact numbers.

The nature of data set [1]: Screening of dissolution and gel formation on mixing with PBS or DMEM. It is filed as physicochemical. Particulars: 2.5% w/v solution mixed with 10-fold PBS (final about 1-fold) or equal volume of DMEM. The method, then: (§1) Unless otherwise specified, the solutions in this example refer to aqueous solutions prepared using purified water or sterile water as the solvent. Based on the AC-PRVDVRVDP-NH2 provided previously, the peptides AC-KLNLKLNLNL-NH2, AC-PRVDVRVKVRVDP-NH2, and AC-RADMSRADMS-NH2 were screened. The above-mentioned peptides were formulated into a 1 mL 2.5% w/v solution, to which 100 µL of 10-fold concentration PBS buffer was added and thoroughly mixed to achieve a final solution of approximately 1-fold PBS. […] Based on this, a similar sequence with liquid-solid phase transition capability, AC-PRVDVRVRVRVDP-NH2 (PRRVDP13), was further designed. At a concentration of 1% w/v, the pH of the two peptide solutions could be pre-adjusted to a certain level using a dropwise addition of 1% w/v NaHCO3 and shaking, without the peptide solution turning into a gel for several hours. However, at a concentration of 2% w/v, when the pH increased to around 3 using a dropwise addition of 1% w/v NaHCO3 and shaking, the peptide solution quickly turned into a gel. The classical sequence RADA16 and the original sequence PRVDP9 needed to be maintained under acidic conditions even at a lower concentration of 1% w/v to keep them in solution state. Otherwise, the solution would turn into a gel, and the color would turn white as the pH increased.

A short description of data set [2]: State of peptide solution (solution or gel) on pH adjustment with NaHCO3. Conditions: for State of Peptide Under Different pH Conditions: gel: pH at which the peptide is a gel; for State of Peptide Under Different pH Conditions: solution: pH at which the peptide is a solution; for pH needed to stay in solution: typical value, concentration not stated (background, inventor's study). It is filed as physicochemical. The protocol: as §1

A short description of data set [3]: Neutralisation of peptide solution by mixing with DMEM medium, pH measured. The format is physicochemical. Particulars: for neutralization of acidity by mixing with DMEM medium: 2.5% w/v peptide solution. The protocol:
As mentioned above, peptide solutions with relatively high concentrations (over 2% w/v) cannot be pre-adjusted to neutral pH before mixing with the cell suspension, and the acidity may be harmful to the cells. […] Therefore, despite the acidic nature of the 2.5% concentration solution, PRRVDP13 may still be used as a cell culture scaffold. The experimental methods are as follows. In a centrifuge tube, 1.5 mL of a 2.5% w/v self-assembling peptide solution was mixed with 1.5 mL of DMEM medium, and after gelation, additional medium was added to make a total volume of […], with a final peptide-to-medium ratio of 1:3. Alternatively, 1.5 mL of a 2.5% self-assembling peptide solution was mixed with 1.5 mL of DMEM medium to achieve a peptide-to-DMEM medium ratio of 1:1. The pH value of each group was then measured.

Data set [4] can be described thus: Rheometer measurement of gel storage modulus G' and loss modulus G". It is filed as physicochemical. Conditions: 2.5% w/v gel triggered by PBS, compared to RADA16 and PRVDP9, FIGs. 7A-7C. The protocol:
(§2) The experimental methods are as follows. Peptide was prepared as a 1 mL solution with a concentration of 2.5% w/v. 100 µL of a 10-fold concentration PBS buffer was added and thoroughly mixed to make the final solution as approximately 1-fold PBS to trigger gelation. The gel strength, which is related to hemostatic ability, is usually represented by the storage modulus G'. […]. The experimental methods are as follows. 3 mL of a 2.5% w/v solution of each peptide was prepared using water for injection and then 600 µL of a 5-fold concentration PBS buffer was added in to trigger gel formation. A suitable amount of gel was placed on the rheometer testing stage, with the setting of the stress of the rheometer at 1 Pa, and the scanning frequency range from 0.1 to 10 Hz to measure the storage modulus G' and loss modulus G" of the gel. To measure the viscosity of the peptide solutions, each peptide was prepared into a 2.5% w/v solution using water for injection, and a creep scan was performed using a rheometer at shear rates ranging from 0.001S^-1 to 1000S^-1 to obtain viscosity data for each peptide solution, as shown in FIGs. 7D-7F.

Data set [5] concerns L929 cells. Put plainly: Cell proliferation on pre-formed peptide gel (CCK-8 assay). It is filed as cell-based. Conditions: gel of 2.5% w/v peptide solution and equal volume of DMEM, about 48 hours, CCK-8, FIGs. 4 and 5. The protocol: To test the biocompatibility of ISAPs, 60 µL of a 2.5% w/v peptide solution was mixed with an equal volume of DMEM medium in a cell culture plate to form a gel. Then, 120 µL of the aforementioned 1×10^5 cells/mL L929 cell suspension was loaded onto the pre-formed gel. […]. […] The cell proliferation assay was performed after culturing the cells in a cell incubator at an atmosphere of 5% CO2 for approximately 48 hours using a CCK-8 assay kit (Beyotime, C0038). For the PRRVDP13 peptide, the cell suspension was directly mixed with the peptide solution, and after the liquid-to-solid phase transition, cells were evenly distributed within the gel. The methods are as follows. 60 µL of the aforementioned L929 cell suspension of 1×10^5 cells/mL and 60 µL of PRRVDP13 peptide were added to a 96-well culture plate. After gelation, 120 µL of culture medium was added for cell culture. After approximately 48 hours of incubation in a cell incubator at an atmosphere of 5% CO2, cells were observed directly using a microscope or observed using a fluorescence microscope following staining with Calcein-AM and PI (Beyotime, C2015S) according to the manufacturer's instructions.
In general terms: Formazan colour is commonly taken as a measure of viable cells.

For data set [6], the system named is New Zealand rabbits. As to the kind of experiment: Liver wound hemostasis model. It is filed as in vivo. An excerpt: The animal (New Zealand rabbits) was anesthetized by 2% sodium pentobarbital via ear vein injection. The animal was then fixed in a supine position on the operating table. The abdominal fur was shaved, and the area was sterilized. A standard midline incision was made, and the left lobe of liver was exposed by dissecting the liver. A sterile gauze was placed beneath the liver. A 1.0 cm long and 0.3 cm deep wound was created on the liver lobe, and the wound was wiped with gauze. The test sample (approximately 1 mL) was injected deeply onto the wound until the entire wound area was covered. The hemostatic effect was observed and the hemostasis time was recorded.

In data set [7] the test system is L929 cells. Put plainly: 3D cell culture in peptide gel, microscopy and Calcein-AM/PI staining. It is filed as cell-based. Conditions: L929 cell suspension mixed directly with peptide solution, about 48 hours, FIG. 6. The method, then: One potential application of ISAPs is to use them as scaffolds for supporting 3D cell culture. To validate their suitability as a 3D cell culture scaffold, L929 cells (purchased from the Kunming Cell Bank of the Chinese Academy of Sciences) that had been cultured for 48-72 hours and were in a vigorous growth phase were digested and then mixed with serum-containing DMEM medium for cell counting. The cell suspension was prepared at a concentration of 1×10^5 cells/mL with serum-containing DMEM medium. The cell suspension was mixed with the peptide in a specific ratio (60 µL:60 µL) and added to a 96-well culture plate. After gelation, 120 µL of serum-containing DMEM medium was added for cell culture. In this example, the ISAP solution was mixed with the cell suspension or cell culture medium to study their biocompatibility.
To test the biocompatibility of ISAPs, 60 µL of a 2.5% w/v peptide solution was mixed with an equal volume of DMEM medium in a cell culture plate to form a gel. Then, 120 µL of the aforementioned 1×10^5 cells/mL L929 cell suspension was loaded onto the pre-formed gel. 4 and 5. […] After approximately 48 hours of incubation in a cell incubator at an atmosphere of 5% CO2, cells were observed directly using a microscope or observed using a fluorescence microscope following staining with Calcein-AM and PI (Beyotime, C2015S) according to the manufacturer's instructions.

Data set [8] can be described thus: Liquid-to-solid phase transition triggered by PBS. It is filed as physicochemical. Conditions: 2.5% w/v solution, about 1-fold PBS, FIG. 8. The protocol: as §2

Regarding “Ac-PRVDVRVKVRVDP-NH2 [AC-PRVDVRVKVRVDP-NH2]”, the “dissolution and gel formation” value in data set [1] was “dissolved easily and formed a good gel”. Besides, the “State of Peptide Under Different pH Conditions: gel” value in data set [2] (concentration 1% w/v) is on record as “pH ≥ 4.05, gel”; in data set [2] (concentration 2% w/v), “pH ≥ 3.20, gel”. Also, the “State of Peptide Under Different pH Conditions: solution” value in data set [2] (concentration 1% w/v) is “pH < 4.05, solution”; in data set [2] (concentration 2% w/v), “pH < 3.20, solution”.

As for “Ac-PRVDVRVDP-NH2 [PRVDP9, AC-PRVDVRVDP-NH2, reference compound]”, the “neutralization of acidity by mixing with DMEM medium” value (from here on “neutralization of acidity by mixing”) in data set [3] is “relatively more difficult to neutralize”. In data set [2] (concentration 1% w/v), the “State of Peptide Under Different pH Conditions: gel” value was “pH ≥ 3.50, gel” and the “State of Peptide Under Different pH Conditions: solution” value is reported as “pH < 3.50, solution”. In addition, the “pH needed to stay in solution” value in data set [2] is < 3.

Take `CC(=O)N[C@@H](CCCNC(=N)N)C(=O)N[C@@H](C)C(=O)N[C@@H](CC(=O)O)C(=O)N[C@@H](C)C(=O)N[C@@H](CCCNC(=N)N)C(=O)N[C@@H](C)C(=O)N[C@@H](CC(=O)O)C(=O)N[C@@H](C)C(=O)N[C@@H](CCCNC(=N)N)C(=O)N[C@@H](C)C(=O)N[C@@H](CC(=O)O)C(=O)N[C@@H](C)C(=O)N[C@@H](CCCNC(=N)N)C(=O)N[C@@H](C)C(=O)N[C@@H](CC(=O)O)C(=O)N[C@@H](C)C(N)=O` [RADA16, AC-RADARADARADARADA-NH2, reference compound]: in data set [3], the “neutralization of acidity by mixing” value is “relatively more difficult to neutralize”. Further, in data set [2] (concentration 1% w/v), the “State of Peptide Under Different pH Conditions: gel” value was “pH ≥ 3.40, gel” and the “State of Peptide Under Different pH Conditions: solution” value is reported as “pH < 3.40, solution”. Moreover, in data set [2], the “pH needed to stay in solution” value was < 3.

Consider “Ac-PRVDVRVRVRVDP-NH2 [PRRVDP13, AC-PRVDVRVRVRVDP-NH2]”, for which, in data set [4], the “mechanical properties (storage modulus G')” value is “better mechanical properties”. In addition, in data set [3], the “neutralization of acidity by mixing” value is “easily neutralized”. In addition, the “pH of the peptide-DMEM mixture” value in data set [3] (2.5% w/v, same volume ratio (1:1 or 1:3), compared with PRVDP9 and RADA16, FIG. 3) is reported as “significantly higher”. The “cell proliferation on the peptide gel” value in data set [5] was “good proliferation”. In addition, the “State of Peptide Under Different pH Conditions: gel” value is given as “pH ≥ 6.29, gel” in data set [2] (concentration 1% w/v) and “pH ≥ 3.25, gel” in data set [2] (concentration 2% w/v). In addition, the “State of Peptide Under Different pH Conditions: solution” value in data set [2] (concentration 1% w/v) is on record as “pH < 6.29, solution”; in data set [2] (concentration 2% w/v), “pH < 3.25, solution”. For the same compound, the “time to complete hemostasis” value in data set [6] (1.25% w/v peptide solution with 1 mg/mL NaHCO3, about 1 mL on rabbit liver wound) is ≤ 50 s; in data set [6] (2.5% w/v peptide solution, about 1 mL on rabbit liver wound), ≤ 50 s. Further, the “bleeding after rinsing off the hydrogel” value in data set [6] (surface hydrogel rinsed off with normal saline after 2 minutes of hemostasis) was “no new bleeding appeared”. Besides, the “cell viability within the gel” value in data set [7] is “majority of cells were viable”. In addition, in data set [8], the “liquid-to-solid phase transition ability” value is given as “good liquid-to-solid phase transition ability”.
